Results: patent US6335030B1, “Transdermally administered dextromethorphan as antitussive agent” (Pharmacia & Upjohn AB, priority 1996, dated 2002)

Key:
[1] = cited from earlier work
[2] = in vivo; cited from earlier work
[3] = in vivo; cited from earlier work; remark: listed apart in the source
[4] = peroral, dogs; cited from earlier work
[5] = In vitro skin permeation in Franz diffusion cells; assay type: in vitro ADME, pig
From the text: Quantitative determination of dextromethorphan in the receptor solution samples from the skin permeation studies in Example 3 and from the membrane permeation studies in Example 4 was done by the HPLC method described under Apparatus.
In vitro permeation of dextromethorphan from the solutions 1, 2, 3, 4, 5, 6, 7 and 8 through dermatomed pig skin was investigated in Franz diffusion Cells.
Skin pieces with a thickness of approximately 765 μm were dermatomed from full thickness pig skin and mounted in glass diffusion cells with an available diffusion area of 1.8 cm^2. Pig skin is a fully accepted model for human skin. The solutions were applied separately on the skin surfaces and the dermal sides were all exposed to 12.1 ml receptor solution consisting of a 0.05M phosphate buffer solution of pH 7.4 equilibrated to 37±1° C.
Permeation of dextromethorphan was followed by removing samples periodically and measuring the concentration by the HPLC method according to Example 2. An increase in the permeated amount of dextromethorphan is seen in the following order: Water, isopropyl myristate, propylene glycol, propylene glycol containing 5% azone, water containing 1% hydroxpropyl-b-cyclodextrine, water containing 1% b-cyclodextrine, ethanol and ethyl acetate used as solvents. The maximal observed flux of dextromethorphan is 21 μg/cm^2/h and the range is from approximately 0.5 to 21 μg/cm^2/h.

COc1ccc2c(c1)[C@]13CCCC[C@@H]1[C@H](C2)N(C)CC3 [dextromethorphan, (+)-3-methoxy-17-methyl-9a,13a,14a-morphinan]
effect on coughing frequency and intensity compared to placebo ([1]; 40 mg perorally, tussometri): significant effect on reducing coughing frequency as well as intensity
antitussive effect upon inhalation ([1]; inhalation of 1-30 mg): has not shown any antitussive effect
safety [2]: safe drug
side-effects compared with codeine and noscapine [2]: fewer side-effects
half-life [3]: 4 to 6 h
absolute bioavailability [4]: 3.8%
maximal observed flux through skin ([5]; dermatomed pig skin, solutions 1-8, receptor phosphate buffer pH 7.4, 37°C): 21 μg/cm^2/h
change of flux depending on solvent ([5]; ethanol, ethyl acetate or addition of cyclodextrines as solvent): remarkable increase in the fluxes
